How the values were obtained:
A375 cells = experiment: A375 CTG proliferation assay (120 h) (melanoma, wt, B-Raf mutant, negative control); assay type: cell-based; conditions: Homo sapiens, A-375, CTG 120 h
Experimental: A375 CTG Proliferation Assay (120 h) (Melanoma, Wt, B-Raf Mutant, Negative Control)
A375 cells (ATCC CRL-1619) are dispensed into 384-well plates, flat and clear bottom (Greiner, PNr. 781091) at a density of 300 cells per well in 60 μL DMEM (Sigma 06429)+10% Fetal Calf Serum (HyClone, PNr.: SH30084.03) and incubated at 37° C. in a CO2 incubator overnight. The next day, compounds (10 mM stock in DMSO) are added at logarithmic dose series using the HP Digital Dispenser D300 (Tecan), including DMSO controls. Plates are incubated for 120 h, and cell viability is measured using CellTiter-Glo luminescent cell viability reagent (Promega product code G7570). Viability (stated as percent of control) is defined as relative luminescence units RLU of each well divided by the RLU of cells in DMSO controls. IC50 values are determined from viability measurements by non-linear regression using a four-parameter model.

KRAS (G12V)::SOS1 = KRAS (G12V)::SOS1 (Homo sapiens (Human), UniProt P01116, C118S/G12V); experiment: KRAS::SOS1 AlphaScreen binding assay, KRAS G12V
KRAS (G12V)::SOS1, sequence (P01116 other isoform, or with tags, fused parts or gaps G12V/C118S): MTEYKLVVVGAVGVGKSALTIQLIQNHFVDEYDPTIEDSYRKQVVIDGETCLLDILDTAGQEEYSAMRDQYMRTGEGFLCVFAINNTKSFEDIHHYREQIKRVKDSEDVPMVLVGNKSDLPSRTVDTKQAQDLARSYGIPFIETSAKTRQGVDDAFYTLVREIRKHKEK
Excerpt: This assay can be used to examine the potency with which compounds according to the invention binding to (mutated) KRAS inhibit the protein-protein interaction between SOS1 and (mutated) KRAS e.g., KRAS WT, KRAS G12C, KRAS G12D, KRAS G12V, KRAS G13D. […] Low IC50 values in this assay setting are indicative of strong inhibition of protein-protein interaction between SOS1 and KRAS:
These assays measure the inhibitory effect of compounds on KRAS mutant protein-protein interactions using the Alpha Screen technology by Perkin Elmer.
The following (mutant) enzyme forms of KRAS and interacting proteins are used in these assays at the given concentrations: • KRAS (G12D) 1-169, N-terminal 6His-tag, C-terminal avi-tag (Xtal BioStructures, Inc.); final assay concentration 10 nM and SOS1 564-1049, N-terminal 229 GST-tag, TEV cleavage site (Viva Biotech Ltd); final assay concentration 5 nM; • KRAS (G12C) 1-169, N-terminal 6His-tag for purification, cleaved off, C-terminal avi-tag, biotinylated, mutations: C51S, C80L, C118S (in house); final assay concentration 7.5 nM and SOS1 564-1049, N-terminal 229 GST-tag, TEV cleavage site (Viva Biotech Ltd); final assay concentration 5 nM; • KRAS (G12V) 1-169, N-terminal 6His-tag for purification, cleaved off, C-terminal avi-tag, biotinylated, TEV cleavage site, mutation: C118S, GDP loaded (in house); final assay concentration 10 nM and SOS1 564-1049, N-terminal 229 GST-tag, TEV cleavage site (Viva Biotech Ltd); final assay concentration 10 nM; • KRAS (G13D) 1-169, N-terminal 6His-tag for purification, cleaved off, C-terminal avi-tag, biotinylated, TEV cleavage site, mutation: C118S, GDP loaded (in house); final assay concentration 10 nM and SOS1 564-1049, N-terminal 229 GST-tag, TEV cleavage site (Viva Biotech Ltd); final assay concentration 10 nM; • KRAS (WT) 1-169, N-terminal 6His-tag for purification, cleaved off, C-terminal avi-tag, biotinylated, TEV cleavage site, mutation: C118S, GDP loaded (in house); final assay concentration 10 nM and SOS1 564-1049, N-terminal 229 GST-tag, TEV cleavage site (Viva Biotech Ltd); final assay concentration 10 nM.
Test compounds dissolved in DMSO are dispensed onto assay plates (Proxiplate 384 PLUS, white, PerkinElmer; 6008289) using an Access Labcyte Workstation with the Labcyte Echo 55×. For the chosen highest assay concentration of 100 μM, 150 nL of compound solution are transferred from a 10 mM DMSO compound stock solution. A series of eleven fivefold dilutions per compound are transferred to the assay plate, compound dilutions are tested in duplicates. DMSO are added as backfill to a total volume of 150 nL.
The assays run on a fully automated robotic system in a darkened room below 100 Lux. To 150 nl of compound dilution 10 μl of a mix including KRAS mutant protein, SOS1 (final assay concentrations see above) and GDP nucleotide (Sigma G7127; final assay concentration 10 μM) in assay buffer (1×PBS, 0.1% BSA, 0.05% Tween 20) are added into columns 1-24.
After 30 minutes incubation time 5 μl of Alpha Screen bead mix in assay buffer are added into columns 1-23. Bead mix consists of AlphaLISA Glutathione Acceptor Beads (PerkinElmer, Cat No AL109) and AlphaScreen Streptavidin Donor Beads (PerkinElmer Cat No 6760002) in assay buffer at a final assay concentration of 10 μg/ml each.
Plates are kept at room temperature in a darkened incubator. After an additional 60 minutes incubation time the signal is measured in a PerkinElmer Envision HTS Multilabel Reader using the AlphaScreen specs from PerkinElmer.
Each plate contains up to 16 wells of a negative control depending on the dilution procedure (platewise or serial) (DMSO instead of test compound; with KRAS mutant::SOS1 GDP mix and bead mix; column 23) and 16 wells of a positive control (DMSO instead of test compound; with KRAS mutant::SOS1 GDP mix w/o bead mix; column 24).
As internal control known inhibitors of KRAS mutant::SOS1 interaction can be measured on each compound plate. […]

CYP3A4 = CYP3A4 (Homo sapiens (Human), UniProt P08684); experiment: Mechanism based inhibition of CYP3A4 assay (MBI 3A4); assay type: in vitro ADME; conditions: hydroxy-midazolam formation after 30 min vs 0 min preincubation, 25 uM, human liver microsomes
CYP3A4, sequence (P08684 whole entry): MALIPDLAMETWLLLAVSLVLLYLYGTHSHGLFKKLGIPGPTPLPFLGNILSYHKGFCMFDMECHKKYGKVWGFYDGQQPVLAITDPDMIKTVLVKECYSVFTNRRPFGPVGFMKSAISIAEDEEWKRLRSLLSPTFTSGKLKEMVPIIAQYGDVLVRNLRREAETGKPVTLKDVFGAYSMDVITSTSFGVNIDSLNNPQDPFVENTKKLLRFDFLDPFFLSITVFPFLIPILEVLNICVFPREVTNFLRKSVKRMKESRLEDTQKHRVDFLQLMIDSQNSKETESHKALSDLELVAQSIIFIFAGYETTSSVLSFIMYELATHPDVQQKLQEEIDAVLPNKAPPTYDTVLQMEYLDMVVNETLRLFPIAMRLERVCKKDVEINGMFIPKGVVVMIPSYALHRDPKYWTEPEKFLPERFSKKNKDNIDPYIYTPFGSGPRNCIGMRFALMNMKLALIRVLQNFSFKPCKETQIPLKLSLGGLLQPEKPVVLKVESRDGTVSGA
Method in brief: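 Human CYP3A4 activity after 30 min vs 0 min preincubation with test compound; incubate then diluted 1:10 and midazolam added for a 15 min main incubation. Quenched with acetonitrile; hydroxy-midazolam quantified by LC/MS-MS and expressed as % of the 0 min preincubation formation.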

| Compound | IC50 (A375 cells) [µM] | IC50 (KRAS (G12V)::SOS1) [µM] | MBI 3A4 (CYP3A4) [%] |
| --- | --- | --- | --- |
| C[C@H](Oc1cc(-c2cccc(C(N)=O)c2)nc(-c2noc3c2CCC[C@@]32CCCc3sc(N)c(C#N)c32)n1)[C@@H]1CCCN1C [II-133] | 1.38 | 0.002 |  |
| C[C@H](Oc1cc(-n2cc(-c3cncs3)nn2)nc(-c2noc3c2CCC[C@@]32CCCc3sc(N)c(C#N)c32)n1)[C@@H]1CCCN1C [II-125] | 0.324 |  | 68 |
| C[C@H](Oc1cc(-n2ccc(-c3cnccn3)n2)nc(-c2noc3c2CCC[C@@]32CCCc3sc(N)c(C#N)c32)n1)[C@@H]1CCCN1C [II-130] | 1.31 | 0.002 | 67 |

Reference: patent publication US20240174690A1, “ANNULATED 2-AMINO-3-CYANO THIOPHENES AND DERIVATIVES FOR THE TREATMENT OF CANCER” (BOEHRINGER INGELHEIM INTERNATIONAL GMBH, priority 2021, published 2024)
